Results as given in US7321074B1, “Melanocortin-3 receptor deficient cells, non-human transgenic animals and methods of selecting compounds which regulate body weight” (Merck & Co., Inc., priority 1999, dated 2008).

Assay: Peripheral MTII administration: food consumption in MC-3R−/− and WT mice
Details: single intraperitoneal injection, 10 mg/kg, n=9
Source text: Food intake measurements—MC-3R^−/−, MC-3R^+/−, and WT mice were separated into individual microisolator cages at approximately one month of age. For studies involving regular mouse chow (Teklad 7012; 5% fat, 19% protein, and 5% of fiber; 3.75 grams/Kcal and 14.8% Kcal. from fat), pellet food was provided in wire cage tops containing food hoppers and food was weighed weekly. For studies involving a high fat diet (Teklad 97070; 33.5% fat, 27.4% protein, and 26.5% carbohydrates; 60% calories from fat), ground food was provided in a glass jar located in the cage and the jar containing the food was weighed either daily or weekly.
Peripheral MTII administration—For seven consecutive days, individually-housed 23-25-week-old male MC-3R^−/− (n=9) and WT (n=9) mice received an intraperitoneal (ip) injection of a sterile 0.9% NaCl vehicle solution approximately 30 min before the onset of the dark phase of the light cycle. At the same time on the eighth consecutive day of the study, mice received an ip injection of MTII at a dose of 10 mg/kg delivered in vehicle. Body and food (Teklad 7012) weights were measured and recorded daily approximately 15 min prior to injection.

## MTII
Male MC-3R−/− mice
  reduction of food consumption over a 24-h period relative to a 2-day vehicle treatment baseline: 16.9±7.0 % reduction
Male WT mice
  reduction of food consumption over a 24-h period relative to a 2-day vehicle treatment baseline: 11.1±4.3 % reduction
